Results reported in patent US20250367348A1, “3D PRINTING OF 3-LAYERED RETINA AND CHOROID TISSUE” (Ramot at Tel-Aviv University Ltd., priority 2023, published 2025).

What was measured:
[1] = system: engineered RPE layer (blood vessel-RPE construct); assay: Calcium imaging (Fluo-4-AM) after ATP addition; type: cell-based; conditions: 100 μM ATP added to medium; followed by slow decrease to baseline
Method: Calcium imaging: Fluo-4-AM was prepared by adding 45 μL DMSO and 45 μL Pluronic-DMSO to a 50 μg vial of Fluo-4-AM.Fluo-4-AM was diluted with HBSS in a ratio of 1:50 and the cells were incubated for 1 hour in 37° C. The cells were washed for 30 minutes in HBSS in 37° C. The sample was placed in an inverted microscope on a heating plate adjusted to 37° C. Fluo-4-AM emission is at 506 nm and excitation is at 494 nm. Images were acquired at a rate of 3.15 Hz. 10 seconds After starting the recording 100 μM ATP were added to the medium. The data was analyzed using ImageJ. TEM: TEM Samples were fixated in 2.5% Glutaraldehyde in PBS over night at 4° C. After several washes in PBS, the samples were post fixed in 1% OsO4 in PBS for 2 h at 4° C. Dehydration was carried out in graded ethanol followed by embedding in Glycid ether. Thin sections were mounted on Formvar/Carbon coated grids, stained with uranyl acetate and lead citrate and examined in Jeol 1400-Plus transmission electron microscope (Jeol, Japan). Images were captured using SIS Megaview III and iTEM the Tem imaging platform (Olympus).SEM: Samples for SEM were fixed with 2.5% glutaraldehyde (24 h, at […]), followed by a graded incubation series in ethanol-water solutions (50-100% (v/v)). […]

[2] = Rheological shear thinning measurements of native and cross-linked ECM hydrogel; type: physicochemical; conditions: 37° C.
Method: Rheological Properties: Rheological measurements were taken using Discovery HR-3 hybrid Rheometer (TA Instruments, DE) with 20 mm diameter parallel plate geometry with a Peltier plate to maintain the sample temperature. The samples were loaded at a temperature of 4° C., which was then raised to 37° C. to induce gelation; during which the oscillatory moduli of samples were monitored at a fixed frequency of 1 Hz and a strain of 1%.
The mechanical properties of an exemplary native ECM-based hydrogel (derived from omentum) and of cross-linked hydrogels were assessed by rheological measurements. Shear thinning measurements were conducted at 37° C. Data are presented as mean±SD, n=3. P-values were calculated using a Comparison of Fits test with an Extra Sum of Squares F-test.

[3] = Compressive (bulk) modulus of hydrogel; type: physicochemical; conditions: compression at 100 μm s^−1; n=3
Method: The compressive modulus measurements were performed using a Discovery HR-3 Hybrid Rheometer (TA Instruments, DE) with a 20 mm diameter parallel plate geometry and a Peltier plate to maintain the sample temperature. Bulk modulus tests were performed by compressing the samples at a fixed rate of 100 μm s^−1.
Alongside the rheological testing, the bulk mechanical properties of the hydrogel were also assessed. Samples were compressed, and the linear elastic modulus was calculated. Data are presented as mean±SD, n=3.

[4] = High-resolution imaging of hydrogel fiber morphology and pore size; type: physicochemical
Method: Data in FIG. 7I is presented as mean±SD, n=3, and each image had at least 180 pores whose area was determined using ImageJ.

| Compound | intracellular calcium levels [1] | change in gel viscosity ([2]; increasing SOx concentration to 0.07%) | change in gel viscosity ([2]; sample cross-linked with 0.03% SOx vs control gel) | hydrogel bulk (linear elastic) modulus with and without exposure to SOx [3] | internal fiber morphology of ECM hydrogel after reinforcement ([4]; before vs after exposure to SOx) | pore size (holes in the mesh) before and after crosslinking ([4]; n=3, at least 180 pores per image) |
| --- | --- | --- | --- | --- | --- | --- |
| Nc1ncnc2c1ncn2[C@@H]1O[C@H](COP(=O)(O)OP(=O)(O)OP(=O)(O)O)[C@@H](O)[C@H]1O [ATP, adenosine triphosphate] | immediately increased intracellular calcium levels in a significant manner | – | – | – | – | – |
| Oxidized sucrose [SOx] | – | smaller increase | large increase | significant reinforcement | without altering the internal morphology | no difference was observed |
